The source of these data is PubChem BioAssay (NCI).

Common to all, as to assay: NCI tumour cell line growth inhibition, 48 h
The test system of assay [1] is NCI-H460 lung.
The subject of assay [2] is M14 melanoma.
Assay [3] deals with HL-60(TB) leukemia.
The test system of assay [4] is NCI-H522 lung.
Assay [5] concerns HCT-15 colon.
The subject of assay [6] is OVCAR-4 ovarian.
Assay [7] has as its system MOLT-4 leukemia.
Assay [8] has as its system LOX IMVI melanoma.
Assay [9] relates to SK-MEL-5 melanoma.

Several values for one entry are separate records, joined by “and”; a condition that tells them apart may be missing. Identical values can stand only once.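 These data come from cells grown in 96-well plates and exposed to compound for 48 hours at five concentrations. GI50 marks 50% less growth. TGI: concentration producing complete growth inhibition.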

Turning to `COc1ccc(-c2nnc(-c3c(C)n(C)n(-c4ccccc4)c3=O)o2)cc1`, the TGI in [1], in assay [2], in assay [3], in [4], in assay [5] and in [6] was greater than 100 µM throughout. For the same compound, the TGI in assay [7] and in assay [8] was greater than 100 µM each time.

With `CCCCN=C(NC#N)N(Cc1ccccc1)Cc1ccccc1`, the TGI in assay [1] was greater than 100 µM; in assay [2], 53.3 µM; in assay [3] it was 49.6 µM; in [4], 31.1 µM; in assay [5], 29.8 µM; in assay [6], greater than 100 µM. Moreover, the results for the TGI in assay [9], in [7] and in assay [8] were 26.1 µM, 48.5 µM and 29.7 µM, respectively.

Regarding `COc1cc([C@H]2c3cc4c(cc3[C@H](NCc3ccc([N+](=O)[O-])cc3)C3COC(=O)[C@H]32)OCO4)cc(OC)c1O` (stereo partly specified), the TGI was 2.18 µM in assay [1]; 10.4 µM in [2]; 6.44 µM in [5]; greater than 100 µM in assay [6]; 6.61 µM in assay [9]; greater than 100 µM in assay [7]. In addition, the TGI in assay [8] turned out to be 9.81 µM.

Consider `CCC(=O)C(C)C(=O)C(=O)C(=O)OC` (stereo unspecified), for which the TGI in assay [1] is greater than 100 µM; in assay [2] it was greater than 100 µM; in assay [3] it was greater than 64.4 µM; in assay [4] it was greater than 100 µM; in [5], greater than 100 µM; in assay [6], greater than 100 µM. Also, the TGI was greater than 100 µM in assay [9], greater than 91.5 µM in assay [7] and greater than 100 µM in assay [8].

Take `COC(=O)[C@@]1(O)CC(C)C=C1C=O` (stereo partly specified): the TGI was 42.1 µM in assay [1]; greater than 100 µM in assay [2]; 51.6 µM in assay [3]; 94.9 µM in [4]; 33.1 µM in assay [5]; greater than 100 µM in assay [6]. Further, the TGI in assay [9], in assay [7] and in [8] was greater than 100 µM in each case.

`CCO/C=C1\N=C(C(Cl)c2ccccc2)OC1=O` (stereo unspecified): the TGI in [1], in assay [2], in assay [3], in assay [4], in assay [5] and in assay [6] was greater than 100 µM throughout. In addition, the TGI in [9], in assay [7] and in [8] was greater than 100 µM in each case.

As for `CN(C(=O)C12C3(C(=O)C(C)(C)C)C4C5(C#N)C3C1(C(=O)C(C)(C)C)C5C42C(=O)C(C)(C)C)C(C)(C)C` (stereo unspecified), the TGI in [1], in assay [2], in assay [3], in assay [4], in assay [5] and in assay [6] was greater than 50 µM in each case. For the same compound, the TGI in assay [9] and in assay [7] was greater than 50 µM throughout.

As for `CC(C)(c1ccc(Oc2ccc(C#N)c(C#N)c2)cc1)c1ccc(Oc2ccc(C#N)c(C#N)c2)cc1`, the GI50 in assay [1], in assay [2], in assay [3], in assay [4], in assay [6] and in assay [9] was greater than 100 µM throughout. The GI50 in assay [7] and in assay [8] was greater than 100 µM in each case. The TGI in [1], in assay [2], in assay [3], in [4], in assay [6] and in [9] was greater than 100 µM each time. Also, the TGI in assay [7] and in assay [8] was greater than 100 µM each time.

Consider `CC(=O)OC(C)(C)/C=C/C(=O)[C@](C)(O)[C@H]1[C@H](O)C[C@@]2(C)[C@@H]3CC=C4[C@@H](C[C@H](O)C(=O)C4(C)C)[C@]3(CO)C(=O)C[C@]12C`, for which the GI50 in assay [1] is 0.407 µM; in [2], 0.0857 µM; in [3], 0.3 µM; in assay [4] it was 0.112 µM; in [5], 0.351 µM; in [6] it was 0.295 µM. For the same compound, the GI50 in [9] was 0.171 µM; in [8], 0.0999 µM. Besides, the TGI is 17.9 µM in [1]; 4.12 µM in [2]; 0.922 µM and 1.33 µM in assay [3]; 0.855 µM and 0.675 µM in assay [4]; greater than 100 µM in assay [5]; 0.835 µM in [6]. Further, the TGI in assay [9] was 0.894 µM and 1.33 µM; in [7] it was 58.3 µM; in [8], 0.492 µM and 0.455 µM.

For `NC(=O)C(=Cc1ccc(CP(=O)(O)O)cc1)C(N)=O`, the TGI in assay [1], in assay [2], in assay [4], in assay [5], in assay [6] and in assay [9] was greater than 100 µM in each case. In addition, the TGI in [7] and in assay [8] was greater than 100 µM each time.

For `Nc1nc(NC2C=C(CO)C(O)C2O)c([N+](=O)[O-])c(=O)[nH]1` (stereo unspecified), the TGI in [1], in assay [2], in assay [4], in [5], in assay [6] and in assay [9] was greater than 100 µM each time. Besides, the TGI in [7] and in assay [8] was greater than 100 µM each time.

For the compound `COc1ccc(C2=Nc3c/c(=C\c4c(O)[nH]c5ccc(Cl)cc45)ccc3=N2)cc1`, the GI50 in [2] is 1.29 µM; in assay [3], 1.51 µM; in assay [5], 1.26 µM; in assay [6] it was 1.8 µM; in [7] it was 1.99 µM. Moreover, the TGI was 3.67 µM in assay [2]; 3.94 µM in assay [3]; 2.77 µM in [5]; 3.34 µM in [6]; 6.08 µM in [7].

On to `NC(CC(=O)Nc1ccc(Cl)cc1)=Nc1ccccc1`, for which the TGI in assay [1], in [2], in [3], in assay [4], in assay [6] and in assay [9] was greater than 100 µM throughout. Further, the TGI in assay [7] and in assay [8] was greater than 100 µM in each case.

Turning to `CCCCCCCC(=O)OCC1OC(n2cc(F)c(=O)[nH]c2=O)C(NC(=O)OCc2ccccc2)C(O)C1O` (stereo unspecified), the TGI in assay [1] was greater than 100 µM; in assay [2], greater than 100 µM; in [3] it was greater than 100 µM; in assay [4], 92 µM; in assay [5], greater than 100 µM; in [6], greater than 100 µM. Also, the values for the TGI in [9], in assay [7] and in assay [8] were 23.7 µM, greater than 100 µM and greater than 100 µM, respectively.

As to `O=c1cc(-c2ccccc2)nc(/C=C(\O)c2ccncc2)n1-c1ccccc1`, the TGI in assay [1], in assay [2], in assay [3], in assay [4], in assay [5] and in [6] was greater than 100 µM each time. The TGI in [9] and in [8] was greater than 100 µM in each case.

Take `CCCCCCCCC(O)C#CC(N)=O` (stereo unspecified): the TGI in assay [1] was found to be 22 µM; in [2] it was 25.6 µM; in [3] it was 40.3 µM; in [5] it was 30.9 µM; in assay [6], 12 µM; in [9] it was 24.3 µM. Further, the TGI in [7] came out at 66.1 µM; in [8] it was 24 µM.

Regarding `CC1(C)N=C(N)N=C(N)N1c1ccc(CCc2ccc(Cl)cc2S(=O)(=O)F)c(Cl)c1`, the GI50 in assay [1] is 3.12 µM; in assay [2], 6.2 µM; in assay [3], 13 µM; in assay [5], 92.8 µM; in [6] it was 9.09 µM; in assay [9] it was 4.39 µM. Further, the GI50 was 11.5 µM in [7] and 4.04 µM in assay [8]. In addition, the TGI in assay [1] was greater than 100 µM; in [2], greater than 100 µM; in [3], 48.1 µM; in assay [5], greater than 100 µM; in assay [6], 84.5 µM; in assay [9], 16.3 µM. In addition, the TGI in assay [7] was 73.6 µM; in assay [8], 20.6 µM.

Regarding `COc1ccc(OC)c(NCC#N)c1`, the TGI in assay [1], in assay [2], in assay [3], in assay [4], in assay [5] and in [6] was greater than 100 µM throughout. In addition, the TGI in assay [9], in [7] and in [8] was greater than 100 µM each time.

On to `O=c1nc(NC(c2ccccc2)(c2ccccc2)c2ccccc2)ccn1CCO`, for which the TGI in assay [1], in assay [3], in [4], in assay [5], in assay [6] and in [7] was greater than 100 µM each time. In assay [8], the TGI is greater than 100 µM.

For `C[C@]1(C(=O)O)N[C@H](C(=O)O)CS1`, the GI50 in [1] was greater than 1000 µM; in assay [2], greater than 1000 µM; in [4], greater than 1000 µM; in assay [5], greater than 1000 µM; in [6], greater than 1000 µM; in [9], 1.48 µM. For the same compound, the GI50 in [8] was greater than 1000 µM. The TGI in assay [1] is greater than 1000 µM; in [2] it was greater than 1000 µM; in assay [4] it was greater than 1000 µM; in assay [5], greater than 1000 µM; in assay [6], greater than 1000 µM; in [9], 270 µM. Besides, the TGI in [8] is greater than 1000 µM.

On to `COc1cc(C=O)c(-c2cc3c(cc2C2(C)OCCS2)OCO3)c(OC)c1OC` (stereo unspecified), for which the TGI is greater than 75.6 µM in [1]; 16.1 µM in assay [2]; 82.1 µM in assay [3]; 13 µM in assay [4]; 30.2 µM in [5]; 173 µM in [6]. Moreover, the TGI was 35.3 µM in [9], greater than 239 µM in assay [7] and 37.7 µM in assay [8].

Turning to `Cc1ccc(-c2cc(=O)c3cc(C)c(C)c(C(=O)O)c3o2)cc1`, the TGI in assay [1] is greater than 100 µM; in assay [2], greater than 100 µM; in assay [4] it was 54.5 µM; in assay [5], greater than 100 µM; in [6], greater than 100 µM; in [9], greater than 100 µM. Further, the TGI in assay [7] and in assay [8] was greater than 100 µM each time.

Regarding `CSc1nc(SC)c2c(C(N)=S)[nH]nc2n1`, the TGI was 64.8 µM in assay [1]; greater than 100 µM in [2]; greater than 100 µM in assay [5]; 55.8 µM in assay [6]; 34.1 µM in [9]; 99.3 µM in [7]. This compound also came in with a TGI in [8] of 62.7 µM.

Take `O=C1C2CC=CCC2C(=O)C12CCc1ccccc12` (stereo unspecified): the TGI in [1], in [2], in assay [3], in assay [5], in [6] and in [8] was greater than 100 µM in each case.

As to `COC(=O)c1ccc(NC(=O)c2cc(OC)c(OC)c(OC)c2)cc1`, the TGI in assay [1] was greater than 100 µM; in assay [2], greater than 100 µM; in assay [3], 4.8 µM; in assay [4], 3.58 µM; in [6], greater than 100 µM; in assay [7], greater than 100 µM. The TGI in [8] was greater than 100 µM.

As to `CC1=C(C(=O)Nc2ccc([N+](=O)[O-])cc2)C(c2ccccc2O)C(C(=O)Nc2ccc([N+](=O)[O-])cc2)=C(C)N1`, the TGI in assay [1] came to 56.4 µM; in assay [2], 45.1 µM; in assay [3], 48.2 µM; in assay [4], 35.9 µM; in [6], 73.8 µM; in assay [9] it was 31.8 µM. For the same compound, the TGI amounted to 52.8 µM in assay [7] and 34.5 µM in assay [8].

As for `CN(C)C(=S)/N=c1\ss/c(=N\C(=S)N(C)C)n1-c1ccc(Cl)cc1`, the TGI in assay [1], in [2], in assay [3], in [4], in [5] and in [7] was greater than 100 µM throughout. The TGI in assay [8] was greater than 100 µM.

Take `CCOc1ccccc1N1C(=O)C(=O)C(c2nc3ccccc3o2)/C(=N\N)C1=O` (stereo unspecified): the TGI in [2], in assay [3], in assay [4], in assay [5], in assay [6] and in assay [9] was greater than 100 µM in each case. In assay [8], this compound registered a TGI greater than 100 µM.
